pIC50: −log10 of the molar value. Counter-ions that a name gives are not always drawn.

We go through 30 compounds from patent US10745384B2, “Indazole derivatives as αv integrin antagonists” (BRISTOL-MYERS SQUIBB COMPANY, priority 2016, dated 2020).

In this test the target is T1, human αVβ6 (Homo sapiens, UniProt P06756+P18564).
T1 construct: purchased R & D systems 3817-AV
T1 sequence (P06756 31-992 limits assumed): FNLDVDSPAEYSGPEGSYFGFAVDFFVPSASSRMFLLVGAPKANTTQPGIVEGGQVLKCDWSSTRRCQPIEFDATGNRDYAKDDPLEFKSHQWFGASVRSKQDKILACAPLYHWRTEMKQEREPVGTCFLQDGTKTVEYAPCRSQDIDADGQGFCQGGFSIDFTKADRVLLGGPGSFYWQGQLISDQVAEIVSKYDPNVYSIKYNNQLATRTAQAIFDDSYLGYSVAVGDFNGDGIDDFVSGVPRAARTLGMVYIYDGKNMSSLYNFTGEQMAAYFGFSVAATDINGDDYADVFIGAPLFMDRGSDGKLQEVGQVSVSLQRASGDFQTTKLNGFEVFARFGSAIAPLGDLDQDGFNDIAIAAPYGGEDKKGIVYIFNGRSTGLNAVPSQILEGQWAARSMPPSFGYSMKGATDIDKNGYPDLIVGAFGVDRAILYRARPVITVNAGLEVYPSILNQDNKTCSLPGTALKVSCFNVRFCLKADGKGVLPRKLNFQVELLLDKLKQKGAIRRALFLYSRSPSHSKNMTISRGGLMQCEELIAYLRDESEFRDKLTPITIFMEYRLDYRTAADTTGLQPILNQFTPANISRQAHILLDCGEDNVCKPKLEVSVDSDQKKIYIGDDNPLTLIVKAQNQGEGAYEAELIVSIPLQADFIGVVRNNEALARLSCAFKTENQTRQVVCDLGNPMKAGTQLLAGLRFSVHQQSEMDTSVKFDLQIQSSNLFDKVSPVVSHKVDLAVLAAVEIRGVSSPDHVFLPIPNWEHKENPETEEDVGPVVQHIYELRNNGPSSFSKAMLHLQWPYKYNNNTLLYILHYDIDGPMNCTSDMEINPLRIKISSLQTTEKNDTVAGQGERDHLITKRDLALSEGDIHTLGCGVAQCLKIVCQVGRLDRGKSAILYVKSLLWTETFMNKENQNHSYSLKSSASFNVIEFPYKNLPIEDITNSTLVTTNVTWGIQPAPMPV
T1 sequence (P18564 22-707 limits assumed): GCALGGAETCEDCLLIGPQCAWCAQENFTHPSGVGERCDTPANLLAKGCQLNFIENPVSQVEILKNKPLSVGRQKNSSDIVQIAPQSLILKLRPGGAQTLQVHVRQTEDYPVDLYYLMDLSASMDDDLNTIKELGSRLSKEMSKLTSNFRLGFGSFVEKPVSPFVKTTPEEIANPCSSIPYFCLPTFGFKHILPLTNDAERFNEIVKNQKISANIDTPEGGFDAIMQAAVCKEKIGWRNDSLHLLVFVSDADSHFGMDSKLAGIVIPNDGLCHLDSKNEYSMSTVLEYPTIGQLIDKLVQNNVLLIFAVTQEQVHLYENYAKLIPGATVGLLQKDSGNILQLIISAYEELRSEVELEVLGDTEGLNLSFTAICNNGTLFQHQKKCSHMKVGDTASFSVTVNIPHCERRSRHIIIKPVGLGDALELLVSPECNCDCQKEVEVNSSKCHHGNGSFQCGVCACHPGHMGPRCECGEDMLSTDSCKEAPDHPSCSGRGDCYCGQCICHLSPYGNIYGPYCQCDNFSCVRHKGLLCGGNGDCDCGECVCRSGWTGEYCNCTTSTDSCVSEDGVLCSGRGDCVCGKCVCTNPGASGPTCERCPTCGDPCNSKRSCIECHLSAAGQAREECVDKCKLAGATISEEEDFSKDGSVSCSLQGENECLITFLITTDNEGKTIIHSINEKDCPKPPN
The test is described as follows: human αVβ6 HTRF binding assay. As to conditions: recombinant human αVβ6 integrin, FITC-conjugated fibronectin. A digest of the protocol: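 HTRF binding in 20 mM Tris pH 7.4 with 1 mM MgCl2, 1 mM MnCl2, 0.01% Tween 20 and 0.01% BSA. For αVβ6, biotinylated integrin (1.25 nM) and FITC-fibronectin (5 nM) were incubated 1 h at RT, then streptavidin-terbium (0.625 nM) was added overnight in the dark. An SPA-based fibronectin binding format was an alternative.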
On the technique in general: In TR-FRET formats the signal depends on donor and acceptor labels being close together.
On to `COc1ccc(C(CC(=O)O)n2ncc3cc(CCCc4ccc5c(n4)NCCC5)ccc32)cn1` (stereo not drawn) [Example 20, 3-(6-Methoxypyridin-3-yl)-3-(5-(3-(5,6,7,8-tetrahydro-1,8-naphthyridin-2-yl)propyl)-1H-indazol-1-yl)propanoic acid], for which the pIC50 (as a rule, −log10 of the IC50, conventionally taken in molar units) is 7.15.

As to `CS(=O)(=O)c1cncc([C@@H](CC(=O)O)n2ncc3cc(OCCc4ccc5c(n4)NCCC5)ccc32)c1` [Example 165, (R)-3-(5-(methylsulfonyl)pyridin-3-yl)-3-(5-(2-(5,6,7,8-tetrahydro-1,8-naphthyridin-2-yl)ethoxy)-1H-indazol-1-yl)propanoic acid], the pIC50 was 6.27.

In the case of `COc1ccc([C@@H](CC(=O)O)n2ncc3cc(OCCc4ccc5c(n4)NCCO5)ccc32)cn1` [Example 181, (R)-3-(5-(2-(3,4-dihydro-2H-pyrido[3,2-b][1,4]oxazin-6-yl)ethoxy)-1H-indazol-1-yl)-3-(6-methoxypyridin-3-yl)propanoic acid], the pIC50 was 5.30.

With `O=C(O)C(CCc1ccccc1)Cn1ncc2cc(OCCc3ccc4c(n3)NCCC4)ccc21` (stereo not drawn) [Example 73, 4-Phenyl-2-((5-(2-(5,6,7,8-tetrahydro-1,8-naphthyridin-2-yl)ethoxy)-1H-indazol-1-yl)methyl)butanoic acid], the pIC50 was 5.74.

On to `O=C(O)CC(c1cncc(C2CC2)c1)n1ncc2cc(OCCc3ccc4c(n3)NCCC4)ccc21` (stereo not drawn) [Example 155, 3-(5-cyclopropylpyridin-3-yl)-3-(5-(2-(5,6,7,8-tetrahydro-1,8-naphthyridin-2-yl)ethoxy)-1H-indazol-1-yl)propanoic acid], for which the pIC50 was 8.28.

Turning to `O=C(O)CC(c1ccc(Oc2ccccc2)cc1)n1ncc2cc(OCCc3ccc4c(n3)NCCC4)ccc21` (stereo not drawn) [Example 57, 3-(4-Phenoxyphenyl)-3-(5-(2-(5,6,7,8-tetrahydro-1,8-naphthyridin-2-yl)ethoxy)-1H-indazol-1-yl)propanoic acid, TFA], the pIC50 is 7.96.

In the case of `CN(C)C(=O)c1cccc(C(CC(=O)O)n2ncc3cc(CCCc4ccc5c(n4)NCCC5)ccc32)c1` (stereo not drawn) [Example 23, 3-(3-(Dimethylcarbamoyl)phenyl)-3-(5-(3-(5,6,7,8-tetrahydro-1,8-naphthyridin-2-yl)propyl)-1H-indazol-1-yl)propanoic acid], the pIC50 was 7.21.

Take `COC(=O)NCc1cncc([C@@H](CC(=O)O)n2ncc3cc(OCCc4ccc5c(n4)NCCC5)ccc32)c1` [Example 168]: the pIC50 was 6.13.

In the case of `O=C(O)C[C@@H](c1cnc2ccccc2c1)n1cc2ccc(CCc3ccc4c(n3)NCCC4)cc2n1` [Example 81, (S)-3-(Quinolin-3-yl)-3-(6-(2-(5,6,7,8-tetrahydro-1,8-naphthyridin-2-yl)ethyl)-2H-indazol-2-yl)propanoic acid], the pIC50 is 8.49.

With `CN(C)c1cncc(C(CC(=O)O)n2ncc3cc(OCCc4ccc5c(n4)NCCC5)ccc32)c1` (stereo not drawn) [Example 163, 3-(5-(dimethylamino)pyridin-3-yl)-3-(5-(2-(5,6,7,8-tetrahydro-1,8-naphthyridin-2-yl)ethoxy)-1H-indazol-1-yl)propanoic acid], the pIC50 is 8.42.

For `COc1ccc(C(CC(=O)O)n2ncc3cc(OCCNC4=NCCN4)ccc32)cn1` (stereo not drawn) [Example 12, 3-(5-(2-((4,5-Dihydroimidazol-2-yl)amino)ethoxy)-1H-indazol-1-yl)-3-(6-methoxypyridin-3-yl)propanoic acid], the pIC50 was 5.70.

Regarding `O=C(O)CC(c1cccc(-n2cccn2)n1)n1ncc2cc(OCCc3ccc4c(n3)NCCC4)ccc21` (stereo not drawn) [Example 134, 3-(6-(1H-Pyrazol-1-yl)pyridin-2-yl)-3-(5-(2-(5,6,7,8-tetrahydro-1,8-naphthyridin-2-yl)ethoxy)-1H-indazol-1-yl)propanoic acid], the pIC50 is 7.77.

Consider `O=C(O)C[C@H](c1cnc2nccnc2c1)n1ncc2cc(OCCc3ccc4c(n3)NCCC4)ccc21` [Example 128, (R)-3-(Pyrido[2,3-b]pyrazin-7-yl)-3-(5-(2-(5,6,7,8-tetrahydro-1,8-naphthyridin-2-yl)ethoxy)-1H-indazol-1-yl)propanoic acid], for which the pIC50 was 7.60.

For the compound `COc1ncc(C(CC(=O)O)n2ncc3cc(OCCc4ccc5c(n4)NCCC5)ccc32)cc1F` (stereo not drawn) [Example 86, 3-(5-Fluoro-6-methoxypyridin-3-yl)-3-(5-(2-(5,6,7,8-tetrahydro-1,8-naphthyridin-2-yl)ethoxy)-1H-indazol-1-yl)propanoic acid, TFA], the pIC50 was 8.11.

For the compound `O=C(O)C[C@H](c1cccc(N2CCCC2=O)c1)n1ncc2cc(OCCc3ccc4c(n3)NCCC4)ccc21` [Example 85, (R)-3-(3-(2-Oxopyrrolidin-1-yl)phenyl)-3-(5-(2-(5,6,7,8-tetrahydro-1,8-naphthyridin-2-yl)ethoxy)-1H-indazol-1-yl)propanoic acid, TFA], the pIC50 is 8.60.

In the case of `O=C(O)CC(Cc1ccc(OCc2ccccc2)cc1)n1ncc2cc(OCCc3ccc4c(n3)NCCC4)ccc21` (stereo not drawn) [Example 69, 4-(4-(Benzyloxy)phenyl)-3-(5-(2-(5,6,7,8-tetrahydro-1,8-naphthyridin-2-yl)ethoxy)-1H-indazol-1-yl)butanoic acid, TFA], the pIC50 was 6.40.

As for `O=C(N[C@@H](Cn1cc2cc(OCCc3ccc4c(n3)NCCC4)ccc2n1)C(=O)O)OCc1ccccc1` [Example 4, (S)-2-(((Benzyloxy)carbonyl)amino)-3-(5-(2-(5,6,7,8-tetrahydro-1,8-naphthyridin-2-yl)ethoxy)-2H-indazol-2-yl)propanoic acid], the negative logarithm of the IC50 (pIC50) is 7.68.

As for `Cc1nc2c(cc1Cc1ccc3cn([C@@H](CC(=O)O)c4cnc5ccccc5c4)nc3c1)CCCN2` [Example 82, (S)-3-(6-((2-Methyl-5,6,7,8-tetrahydro-1,8-naphthyridin-3-yl)methyl)-2H-indazol-2-yl)-3-(quinolin-3-yl)propanoic acid], the pIC50 is 6.82.

As to `COc1ccc(C(CC(=O)O)n2ncc3cc(OCCc4ccc5c(n4)NCCN5C)ccc32)cn1` (stereo not drawn) [Example 179, 3-(6-Methoxypyridin-3-yl)-3-(5-(2-(1-methyl-1,2,3,4-tetrahydropyrido[2,3-b]pyrazin-6-yl)ethoxy)-1H-indazol-1-yl)propanoic acid], the pIC50 was 7.33.

In the case of `Cc1ncc([C@H](CC(=O)O)n2ncc3cc(OCCc4ccc5c(n4)N[C@H](C)CC5)ccc32)cn1` (single isomer, unassigned) [Example 176], the pIC50 is 7.48.

Take `COc1ncc([C@H](CC(=O)O)n2ncc3cc(OCCc4ccc5c(n4)NCCC5)ccc32)cn1` [Example 148, (S)-3-(2-methoxypyrimidin-5-yl)-3-(5-(2-(5,6,7,8-tetrahydro-1,8-naphthyridin-2-yl)ethoxy)-1H-indazol-1-yl)propanoic acid]: the pIC50 was 7.74.

Turning to `O=C(O)CC(c1cncc(C(=O)N2CCC2)c1)n1ncc2cc(OCCc3ccc4c(n3)NCCC4)ccc21` (stereo not drawn) [Example 157, 3-(5-(azetidine-1-carbonyl)pyridin-3-yl)-3-(5-(2-(5,6,7,8-tetrahydro-1,8-naphthyridin-2-yl)ethoxy)-1H-indazol-1-yl)propanoic acid], the pIC50 was 7.49.

In the case of `O=C(O)C[C@H](c1cncc(N2CCCC2=O)c1)n1ncc2cc(OCCc3ccc4c(n3)NCCC4)ccc21` [Example 150, (R)-3-(5-(2-oxopyrrolidin-1-yl)pyridin-3-yl)-3-(5-(2-(5,6,7,8-tetrahydro-1,8-naphthyridin-2-yl)ethoxy)-1H-indazol-1-yl)propanoic acid], the pIC50 was 6.96.

Take `O=C(O)CC(c1cncc(C(=O)N2CCOCC2)c1)n1ncc2cc(OCCc3ccc4c(n3)NCCC4)ccc21` (stereo not drawn) [Example 152, 3-(5-(morpholine-4-carbonyl)pyridin-3-yl)-3-(5-(2-(5,6,7,8-tetrahydro-1,8-naphthyridin-2-yl)ethoxy)-1H-indazol-1-yl)propanoic acid]: the pIC50 was 7.66.

With `O=C(O)CC(c1ccnc(N2CCCC2=O)c1)n1ncc2cc(OCCc3ccc4c(n3)NCCC4)ccc21` (stereo not drawn) [Example 93, 3-(2-(2-Oxopyrrolidin-1-yl)pyridin-4-yl)-3-(5-(2-(5,6,7,8-tetrahydro-1,8-naphthyridin-2-yl)ethoxy)-1H-indazol-1-yl)propanoic acid, TFA], the pIC50 is 8.09.

In the case of `CN(C)Cc1cncc(C(CC(=O)O)n2ncc3cc(OCCc4ccc5c(n4)NCCC5)ccc32)c1` (stereo not drawn) [Example 105, 3-(5-((Dimethylamino)methyl)pyridin-3-yl)-3-(5-(2-(5,6,7,8-tetrahydro-1,8-naphthyridin-2-yl)ethoxy)-1H-indazol-1-yl)propanoic acid], the pIC50 was 8.00.

As for `COc1ccc(C(CC(=O)O)n2ncc3cc(CCc4ccc5c(n4)NCCC5)ccc32)cn1` (stereo not drawn) [Example 2, 3-(6-Methoxypyridin-3-yl)-3-(5-(2-(5,6,7,8-tetrahydro-1,8-naphthyridin-2-yl)ethyl)-1H-indazol-1-yl)propanoic acid], the pIC50 was 6.96.

For `Cc1cc(C)c(S(=O)(=O)NC(Cn2ncc3cc(OCCc4ccc5c(n4)NCCC5)ccc32)C(=O)O)c(C)c1` (stereo not drawn) [Example 13, 3-(5-(2-(5,6,7,8-Tetrahydro-1,8-naphthyridin-2-yl)ethoxy)-1H-indazol-1-yl)-2-((2,4,6-trimethylphenyl)sulfonamido)propanoic acid], the pIC50 was 6.49.

As for `CCOc1ncc([C@@H](CC(=O)O)n2ncc3cc(OCCc4ccc5c(n4)NCCC5)ccc32)cn1` [Example 108, (R)-3-(2-Ethoxypyrimidin-5-yl)-3-(5-(2-(5,6,7,8-tetrahydro-1,8-naphthyridin-2-yl)ethoxy)-1H-indazol-1-yl) propanoic acid, TFA], the pIC50 was 6.41.

`O=C(O)CCn1ncc2cc(OCCc3ccc4c(n3)NCCC4)ccc21` [Example 51, 3-(5-(2-(5,6,7,8-Tetrahydro-1,8-naphthyridin-2-yl)ethoxy)-1H-indazol-1-yl)propanoic acid]: the pIC50 is 5.60.
